# Results as given in patent publication US7094869B2, “Low molecular weight peptidomimetic growth hormone secretagogues” (Genentech, Inc., priority 1994, dated 2006).
# Entries after “also recorded” stand apart in the source; their conditions may differ.
# Columns and labels:
# [1] = test system: LH; assay: LH release from pituitary cells (RIA); assay type: cell-based, rat; settings: 100 nM; listed as (inip)-bbFK-NH2
# Description: (§1) Dispersion: Adult female Sprague-Dawley (160-180 g., Charles River) rats were group-caged in a 12:12 light:dark cycle with food and water available ad libitum. Pituitaries from ten rats were removed, the posterior pituitary discarded and the anterior pituitary placed in Hanks' Balanced Salt Solution (HBSS: without calcium chloride, w/o magnesium chloride, w/o magnesium sulfate; Gibco) containing 20 mM HEPES (Gibco) and 100 U/ml penicillin streptomycin (PS: JRH Biosciences). Under sterile conditions, pituitaries were rinsed twice then minced into small fragments with a razor blade. Fragments were resuspended in 5 ml of HBSS/HEPES containing 20 mg collagenase (Serva 17449) and […] of 1 mg/ml DNase (Sigma) for a 40 min. incubation in a 37° C. gyrotory water bath shaker (New Brunswick Scientific Model G76; setting 10). […] The cells were centrifuged 1000× g for 5 min, resuspended, counted and plated at a final cell concentration of 100,000 cells/ml. […] STATISTICS: The mean for each group was determined and analyzed by one-way analysis of variance with a post-hoc Student-Newman-Keuls. […] The EC50 was calculated using a 4-parameter curve-fit program (Kaleidagraph). […] RIA of pituitary hormones: LH, FSH, TSH, and Prolactin were determined with commercially available kits from Amersham, and ACTH levels were determined by a RIA kit from ICN. […]
# [2] = test system: TSH; assay: TSH release from pituitary cells (RIA); assay type: cell-based, rat; settings: 100 nM; listed as (inip)-bbFK-NH2
# Description: as §1
# [3] = test system: pituitary cells; assay: Calcium flux experiment (Indo-1 AM loaded pituitary cells); assay type: cell-based, rat; settings: 10 nM, 21 seconds after addition
# [4] = molecular target: rat pituitary cells (Rattus norvegicus, UniProt O08725); assay: Rat “pit” cell challenges: combinations with GHRP-6/GHRH, desensitization, somatostatin suppression, GHRP antagonist; assay type: cell-based
# Sequence of rat pituitary cells (O08725 whole entry): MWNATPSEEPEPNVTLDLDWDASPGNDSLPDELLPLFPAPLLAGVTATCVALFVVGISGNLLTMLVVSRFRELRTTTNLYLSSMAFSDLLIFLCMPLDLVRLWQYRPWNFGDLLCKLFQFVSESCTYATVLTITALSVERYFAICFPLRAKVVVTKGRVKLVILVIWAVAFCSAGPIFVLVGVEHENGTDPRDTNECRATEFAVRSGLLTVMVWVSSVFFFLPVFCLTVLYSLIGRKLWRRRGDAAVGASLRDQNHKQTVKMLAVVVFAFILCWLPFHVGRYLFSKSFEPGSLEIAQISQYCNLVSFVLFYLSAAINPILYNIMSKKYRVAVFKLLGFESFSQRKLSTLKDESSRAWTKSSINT
# Description: Dispersion: Adult female Sprague-Dawley (160-180 g., Charles River) rats were group-caged in a 12:12 light:dark cycle with food and water available ad libitum. Pituitaries from ten rats were removed, the posterior pituitary discarded and the anterior pituitary placed in Hanks' Balanced Salt Solution (HBSS: without calcium chloride, w/o magnesium chloride, w/o magnesium sulfate; Gibco) containing 20 mM HEPES (Gibco) and 100 U/ml penicillin streptomycin (PS: JRH Biosciences). Under sterile conditions, pituitaries were rinsed twice then minced into small fragments with a razor blade. Fragments were resuspended in 5 ml of HBSS/HEPES containing 20 mg collagenase (Serva 17449) and 200 ml of 1 mg/ml DNase (Sigma) for a 40 min. incubation in a 37° C. gyrotory water bath shaker (New Brunswick Scientific Model G76; setting 10). After the incubation, fragments were triturated to yield small clumps and single cells. The cells were centrifuged 1000× g for 5 min, resuspended, counted and plated at a final cell concentration of 100,000 cells/ml. Incubation media was DME low glucose media w/NaHCO3 (Gibco) containing 20 mM hepes, 100 U/ml PS and 10% FBS (Hyclone A-111-L). Cells were plated at 0.5 ml per well in 48 well plates (Falcon) and incubated at 37° C. in 5% C02 for three days. […] The highest concentration of DMSO in media was 0.1%. Stock solutions (1 mM) of rat GHRH, somatostatin (Sigma) and GHRP antagonist HwkWfK were made fresh in media and diluted appropriately. The media used in all challenges and washing steps was DME low glucose with 20 mM Hepes, 100 U/ml PS, 10% FBS. Media was warmed to 37° C. and gassed by placing it into the incubator prior to challenge. On day three, the media was discarded and fresh media (approximately 1 ml) added for the first of three washes. After the last wash, the plate was placed back in the incubator for a 15 min pre-incubation. Then cells were washed 2× (with warmed and gassed media) and fresh 0.5 ml media were added for the second 15 min. pre-incubation. After the second pre-incubation cells were washed 2× as above and 0.5 ml of control and test solutions were added for a final 15 min incubation. After this incubation, the media were removed for subsequent GH ELISA. GH ELISA: A two-site ELISA was used to determine rat GH concentration in the media. Briefly, goat anti-rat GH antibody (lot#19164-20) was used to coat Nunc immunoplates overnight. After blocking and washing, standard (rat GH reference preparation: Parlow) and challenge media is diluted 1:20 prior to GH assay were added for a 1 hr room temperature incubation. STATISTICS: The mean for each group was determined and analyzed by one-way analysis of variance with a post-hoc Student-Newman-Keuls. Significance is defined as P<0.05. The EC50 was calculated using a 4-parameter curve-fit program (Kaleidagraph). Three to four independent EC50s were used to derive the mean and SEM.
compound,measurement,setting,value
"NCCCC[C@H](NC(=O)[C@H](Cc1ccccc1)NC(=O)[C@@H](Cc1ccc2ccccc2c1)NC(=O)[C@@H](Cc1ccc2ccccc2c1)NC(=O)C1CCNCC1)C(N)=O [(inip) b b F K amide, (inip)-DβNal-DβNal-Phe-Lys-amide]",LH release,[1],had no effect on these hormone concentrations; also recorded: unchanged
same,TSH release,[2],had no effect on these hormone concentrations; also recorded: unchanged
same,Ca++ flux,[3]; listed as (inip)-bbFK-NH2,increased Ca flux
same,Ca++ flux,[3]; listed as (inip)bbFK-NH2,increased C^++ flux
same,increase in GH levels over control,[4]; 100 nM,3 fold
same,GH release in combination with GHRH,"[4]; GHRP 100 nM plus GHRH 10 or 100 nM, listed as (inip)-bbFK-NH2",show synergy with 10 nM GHRH; also recorded: showed synergy with GHRH
same,GH release in combination with GHRP-6,"[4]; both at 100 nM, listed as (inip)-bbFK-NH2",no additional or synergistic increase was observed; also recorded: no additional increase was observed
same,GH release in the presence of 20 nM somatostatin,"[4]; coincubation with 20 nM somatostatin, listed as (inip)-bbFK-NH2",suppressed this enhanced release
same,GH release after sequential 15 min incubations with fresh compound (desensitization),"[4]; three sequential 15 min incubations, 100 nM",no significant GH release compared to control
